Test results: patent publication US9963473B2, “Stabilized form of tetrofosmin and its use” (priority 2014, dated 2018)

Experiments:
[1] = Hygroscopicity (open vial, change of weight); type: physicochemical
Source text: An open vial of Tetrofosmin x 2 HBF4 was stored at room temperature, normal atmosphere and 50% humidity.

[2] = Storage stability of Tetrofosmin x 2 HBF4 (1H and 31P NMR spectra); type: physicochemical
Description: Tetrofosmin x 2 HBF4 was stored at room temperature without protective gas (e. g. argon or nitrogen). In accordance to example 1, the ^1H and ^31P spectra were unchanged after 12 months.
Moreover, Tetrofosmin x 2 HBF4 was heated in a normal atmosphere (with oxygen) at 50° C. for 6 hours.

Compound | physical nature / hygroscopicity ([1]; own experiments of the inventors) | 1H and 31P spectra after heating ([2]; normal atmosphere (with oxygen), 50° C. for 6 hours) | 1H and 31P spectra after storage ([2]; room temperature, without protective gas, after 12 months) | change of weight (hygroscopicity) ([1]; open vial, room temperature, normal atmosphere, 50% humidity, after 72 h)
CCOCCP(CCOCC)CCP(CCOCC)CCOCC.Cl [Tetrofosmin hydrochloride, reference compound] | oily and hygrospcopic | – | – | –
Tetrofosmin x 2 HBF4 | – | no sign of degradation | unchanged | no change of weight
